Data on one compound can be found in patent US20220008495A1, “APPLICATION OF PHLEGMYHEATCLEAR IN PREPARATION OF DRUG FOR TREATMENT OF ACUTE EXACERBATION OF CHRONIC OBSTRUCTIVE PULMONARY DISEASE” (SHANGHAI KAIBAO PHARMACEUTICAL CO., LTD., priority 2020, published 2022).

Marks after values point to notes of the source that are not given here.

Holding throughout (type): in vivo, SD rats
The subject of test [1] is model of rats with acute exacerbation of chronic obstructive pulmonary disease. As to the kind of experiment: Complete blood count (peripheral blood inflammatory cells). The following applies: dexamethasone 0.23 mg/kg/d gavage 7 days, x±SD. The text has this: (§1) The rats were allowed to acclimate to their surroundings for 7 days since purchased from the specific company. The rats were fed sterilized feed and allowed to free access to sterilized water. Operators regularly checked purification and water and electricity operating system to keep a quite environment. 14 rats were selected to fall into a blank control group, and the remaining rats were subjected to cigarette smoking and repeatedly infected with Klebsiella pneumoniae (KP) to establish chronic obstructive pulmonary disease (COPD) stable-phase model of rats. The method comprises the steps of: light a cigarette, making smoke concentration reach 3000±500 ppm, twice a day. The rats took a rest for at least 3 hours between the two times of being exposed to cigarette smoking, lasting for a total of 12 weeks. From 1 to 8 weeks, model of rats were instilled KP suspension (6×10^8 CFU/ml) 0.1 ml through the nasal cavity every 5 days. Instillation via the nasal cavity: a sterilized 1 ml syringe was used to draw 0.1 ml of KP suspension; the KP suspension was instilled into the rats when the rats were breathing in, and the instillation process was done in either the left and right nostrils in an alternating way. Lipopolysaccharide (LPS) 2 mg/kg was instilled into the trachea on the first day of the 13th week to establish model of rats with acute exacerbation of chronic obstructive pulmonary disease. After successful modeling, the model of rats were randomly divided into five groups, including a model control group, a high dose of phlegmyheatclear group, a middle dose of phlegmyheatclear group, a low dose of phlegmyheatclear group, and a dexamethasone group, with 12 rats in each group.
The administration was started from the 2nd day of the 13th week. The same volume of purified water (10 ml/kg/d) was administered intragastrically to rats in the blank control group and the model control group, and the other groups were received high dose of phlegmyheatclear, middle dose of phlegmyheatclear, low dose of phlegmyheatclear, and dexamethasone once a day. All the rats were fasted within 12 hours before sampling of blood, however, the rats were allowed to free access to water. Blood samples were collected from caudal vein for CBC. Then the rats were anesthetized by intraperitoneal injection of 10% 1.0 ml/100 g urethane. Exposed tracheal intubation was performed. Changes of the pulmonary functions of the rats were detected by using an animal pulmonary function test system (PET). […]
Blood samples were collected from caudal vein for CBC, the following items were counted: the white blood cell count (WBC), the ratio of neutrophils (NEU %), the percentage of lymphocytes (% LYMPH) and the percentage of mononuclear cells (% MONO).

Test [2] shares this test system. The experiment in a line: Lung functions (animal pulmonary function test system). As to conditions: dexamethasone 0.23 mg/kg/d gavage 7 days; x±SD, n=6-12.
Source text: as §1
The administration was started from the 2nd day of the 13th week. The same volume of purified water (10 ml/kg/d) was administered intragastrically to rats in the blank control group and the model control group, and the other groups were received high dose of phlegmyheatclear, middle dose of phlegmyheatclear, low dose of phlegmyheatclear, and dexamethasone once a day. All the rats were fasted within 12 hours before sampling of blood, however, the rats were allowed to free access to water. Blood samples were collected from caudal vein for CBC. Then the rats were anesthetized by intraperitoneal injection of 10% 1.0 ml/100 g urethane. Exposed tracheal intubation was performed. Changes of the pulmonary functions of the rats were detected by using an animal pulmonary function test system (PET). Blood was collected from the abdominal aorta, and the collected blood was placed for 2 hours and centrifuged to obtain the blood serum to detect the levels of inflammatory factors IL-6, IL-10, CRP and SAA. The rat trachea and the whole lung were taken out by thoracotomy. The right main bronchus was ligated, and the left bronchoalveolar lavage fluid (BALF) was drawn out to detect the level of inflammatory factor TNF-α; the left lung was perfused with 4% paraformaldehyde for 1 hour, and the left lung was directly fixed in the 4% paraformaldehyde for pathological examination.
Before sampling, the rats were anesthetized by intraperitoneal injection of 10% 1.0 ml/100 g urethane. Exposed tracheal intubation was performed. Relevant parameters of each rat were detected by using an animal pulmonary function test system (PET), wherein the parameters include forced vital capacity (FVC), forced expiratory volume at 0.1 s (FEV0.1), forced expiratory volume at 0.3 s (FEV0.3), maximum expiratory flow rate (PEF), mid-maximum expiratory flow (MMEF), functional residual capacity (FRC), and other parameters, changes in lung function (x±SD) of rats in each group are shown in Table 3.

Test [3] shares this test system. As to the kind of experiment: Determination of IL-6, IL-10 in serum and TNF-α in alveolar lavage fluid (ELISA). The following applies: dexamethasone 0.23 mg/kg/d gavage 7 days, n=10-12. On the technique in general: An ELISA detects its analyte on a solid surface through an enzyme-linked reagent.
Procedure: The administration was started from the 2nd day of the 13th week. The same volume of purified water (10 ml/kg/d) was administered intragastrically to rats in the blank control group and the model control group, and the other groups were received high dose of phlegmyheatclear, middle dose of phlegmyheatclear, low dose of phlegmyheatclear, and dexamethasone once a day. All the rats were fasted within 12 hours before sampling of blood, however, the rats were allowed to free access to water. […] Then the rats were anesthetized by intraperitoneal injection of 10% 1.0 ml/100 g urethane. Exposed tracheal intubation was performed. […]
Test [4] has the same test system. As to the kind of experiment: Pathological examination of lung tissue (HE staining; MLI, MAN, bronchial wall thickness). As to conditions: dexamethasone 0.23 mg/kg/d gavage 7 days; x±SD, n=8.
Procedure: The administration was started from the 2nd day of the 13th week. The same volume of purified water (10 ml/kg/d) was administered intragastrically to rats in the blank control group and the model control group, and the other groups were received high dose of phlegmyheatclear, middle dose of phlegmyheatclear, low dose of phlegmyheatclear, and dexamethasone once a day. All the rats were fasted within 12 hours before sampling of blood, however, the rats were allowed to free access to water. […] Then the rats were anesthetized by intraperitoneal injection of 10% 1.0 ml/100 g urethane. Exposed tracheal intubation was performed. […] The rat trachea and the whole lung were taken out by thoracotomy. […]
Test [5] shares this test system. The experiment in a line: Determination of serum CRP and SAA levels (ELISA). The following applies: dexamethasone 0.23 mg/kg/d gavage 7 days, x±SD, n=9-12.
Source text: as §1, with “Lipopolysaccharide (LPS) 2 mg/kg was instilled into the trachea on the first day of the 13th week to establish model of rats with acute exacerbation of chronic obstructive pulmonary disease. After successful modeling, the model of rats were randomly divided into five groups, including a model control group, a high dose of phlegmyheatclear group, a middle dose of phlegmyheatclear group, a low dose of phlegmyheatclear group, and a dexamethasone group, with 12 rats in each group.” left out
The administration was started from the 2nd day of the 13th week. […] Changes of the pulmonary functions of the rats were detected by using an animal pulmonary function test system (PET). […]

For `C[C@@H]1C[C@H]2[C@@H]3CCC4=CC(=O)C=C[C@]4(C)[C@@]3(F)[C@@H](O)C[C@]2(C)[C@@]1(O)C(=O)CO` [Dexamethasone, dexamethasone], in test [1], the “LYM (percentage of lymphocytes)” value is 82.15 ± 15.32%, the “MONO (percentage of mononuclear cells)” value is listed as 0.61 ± 0.25^b %, the “NEU (ratio of neutrophils)” value is on record as 16.57 ± 14.99% and the “WBC (white blood cell count)” value is given as 3.80 ± 1.53^bb *10^9/L. In test [2], the “FEV0.1 (forced expiratory volume at 0.1 s)” value was found to be 5.31 ± 2.90 mL, the “FEV0.3 (forced expiratory volume at 0.3 s)” value was 15.06 ± 2.84 ^b mL, the “FRC (functional residual capacity)” value amounted to 4.37 ± 1.48 mL and the “FVC (forced vital capacity)” value is on record as 16.33 ± 2.01^bb mL. Besides, in test [2], the MMEF (mid-maximum expiratory flow) stood at 78.6 ± 29.1 mL/s and the “PEF (maximum expiratory flow rate)” value is 81.57 ± 29.43 mL/S. The TNF-α in test [3] (alveolar lavage fluid (BALF)) is 325.52 ± 49.51^bb pg/mL. For the same compound, in test [3] (serum), the IL-6 is 507.54 ± 185.62^bb pg/mL and the IL-10 is 40.65 ± 6.31 ^ pg/mL. Moreover, in test [4], the “MAN (mean alveolar numbers)” value is listed as 330.49 ± 77.29 ↑/mm^2, the “MLI (mean linear intercept)” value is on record as 47.24 ± 5.78 μm and the Wt (bronchial wall thickness) is 16.6 ± 4.01 µm. Also, in test [5], the CRP is 3420.23 ± 1254.10^bb ng/mL and the SAA was 19.18 ± 6.18^bb μg/mL.
